Results from PubChem BioAssay (NCI).
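Cultured in 96-well plates, cells were exposed to test compound for 48 hours across five concentrations. TGI: concentration producing complete growth inhibition.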

Assays:
Assay in all cases: NCI tumour cell line growth inhibition, 48 h
PC-3 prostate = test system: PC-3 prostate
BT-549 breast = test system: BT-549 breast
SR leukemia = test system: SR leukemia
LXFL 529 NSCLC = test system: LXFL 529 NSCLC
DMS 114 small cell lung = test system: DMS 114 small cell lung
HS 578T breast = test system: HS 578T breast
P388 leukemia = test system: P388 leukemia
P388/ADR leukemia = test system: P388/ADR leukemia
SN12K1 renal = test system: SN12K1 renal
HOP-18 NSCLC = test system: HOP-18 NSCLC

| SMILES | TGI (PC-3 prostate) [µM] | TGI (BT-549 breast) [µM] | TGI (SR leukemia) [µM] | TGI (LXFL 529 NSCLC) [µM] | TGI (DMS 114 small cell lung) [µM] | TGI (HS 578T breast) [µM] | TGI (P388 leukemia) [µM] | TGI (P388/ADR leukemia) [µM] | TGI (SN12K1 renal) [µM] | TGI (HOP-18 NSCLC) [µM] |
| --- | --- | --- | --- | --- | --- | --- | --- | --- | --- | --- |
| CCOP(=O)(OCC)/C(C#N)=C/c1cn(C)cn1 | > 100 | > 100 | > 100 | – | – | – | – | – | – | – |
| CC(C)OP(=O)(OC(C)C)/C(I)=N/Nc1ccc([N+](=O)[O-])cc1 | – | – | > 100 | > 100 | > 100 | – | – | – | – | – |
| C[Si](C)(OCCS(=O)(=O)O)C1(Cc2cccc3ccccc23)S(=O)(=O)OCCOS1(=O)=O | 45.4 | 33.5 | – | – | – | 95 | – | – | – | – |
| Cc1ccc(N=N/C(=N\NC(=O)c2ccc(C)cc2)c2ccc(N(CCC#N)CCC#N)cc2C)cc1 | > 100 | – | > 100 | – | – | 70 | – | – | – | – |
| Cc1ccc(N2Cc3c(ccc4ccccc34)OP2(=O)Oc2ccc(Cl)c(C)c2)cc1 (stereo not drawn) | – | – | – | – | > 100 | – | > 100 | > 100 | > 100 | > 100 |
| COc1ccc(-n2cnnc2-c2nsc3ccccc23)cc1 | – | – | > 100 | > 100 | > 100 | – | – | – | – | > 100 |
| CC1=Nc2nc(Cl)cn2C(=O)C1(Cl)Cl | > 10 | – | > 10 | – | – | > 10 | – | – | – | – |
| CC(NC(=O)C(C)NC(=O)C(N)CCP(C)(=O)O)C(=O)O (stereo not drawn) | – | – | – | – | – | – | > 31.6 | > 100 | > 100 | > 100 |
